Data on two molecules can be found in patent publication EP1398031A1, “Use of 6-amino-quinoline-5,8-quinones and nucleic acids associated with senescence for the treatment of tumors” (Max-Planck-Gesellschaft zur Förderung der Wissenschaften …, priority 2002, dated 2004).

Series [1] concerns HDF. Put plainly: cGMP assay (competitive immunoassay on cell lysates). It is filed as cell-based. The settings on record: Homo sapiens, 1 µM LY, 100 µM SNP for 2 hours, read-out: inhibition of the SNP-induced synthesis of cGMP. The protocol: Cells of early and late passages were seeded in equal numbers in 6-well plates. 24 hours later SNP (Sigma) was dissolved in complete medium and added to cells to a final concentration of 100 µM. Control cells received the same volume of drug-free medium. After 2 hours of incubation, medium was removed and cells were lysed by addition of 400 µl 0.1 M HCl per well for 10 minutes. cGMP concentration in lysates was determined using a specific competitive immunoassay according to the manufacturer's instructions (Sigma). A plate reader (LAMBDA E, MWG-Biotech) was used to detect the signal at 405 nm. Experiments were performed in triplicates with all samples measured twice.

Series [2] has as its system HDF. Nature of the series: proliferation assay (cell counting). The format is cell-based. The protocol: (§1) Cells were seeded in equal numbers in 6-well plates the day before addition of LY in order to ensure uniform cell layers at the start of the experiments. Cells were treated in triplicates with daily exchange of medium containing drug or drug-free vehicle. For each time point cells were trypsinized and cell proliferation was assessed using a Z1 Counter (Coulter).

Series [3] concerns HDF. Put plainly: SA-β-gal staining and morphology. It is filed as cell-based, human. The settings on record: early passage HDF treated with LY. The protocol: Cells were fixed by incubation in 0.5 % glutaraldehyde in PBS for 5 minutes at room temperature and stained for SA-ß-galactosidase at pH 6.0 as described by Dimri et al., 1995.
(§2) For phase contrast and β-gal staining an Axiovert 25 microscope (Zeiss) equipped with a HyperHAD CCD camera (Sony) and ImageBase software (Kappa) was used. In vivo expression of histone-H2B-eGFP was documented with a Photometrics CooISNAP-HQ CCD camera (Roper Scientific) on an inverted Axiovert 200M microscope (Zeiss) using the Metamorph software (Universal Imaging).

For series [4], the system named is HDF. Put plainly: FACS analysis of cell cycle after release from confluence. It is filed as cell-based, human. The following applies: HDF synchronized by confluence, released by trypsinization; 1 µM LY, 24 and 36 hours. The protocol:
(§3) Cell samples (both adherent and floating cells) were harvested by trypsinization, washed once with PBS and fixed in 70 % ethanol for > 2 hours on ice, washed once with PBS and incubated for 30 minutes at room temperature in staining solution containing 50 µg/ml of propidium iodide, 0.2 mg/ml of RNase A and 0.1 % (v/v) Triton X-100 in PBS. Quantification of apoptotic cells was performed using the Annexin V-FITC apoptosis detection kit (Becton Dickinson). Samples were analyzed with a FACScan unit (Becton Dickinson). 1×10^4 cells were analyzed for each assay. Quantitation was performed using single histogram statistics.

Series [5] concerns HDF. Nature of the series: detection of DNA-synthesis (BrdU incorporation). The format is cell-based, human. The settings on record: 1 µM LY; synchronized HDF; 10 µM BrdU for 6 hours. Here is the method:
Cells were plated on cell locate glass grids (Eppendorf) and labeled for 6 hours using the 5'-bromo-2'-deoxy-uridine labelling and detection kit I (Roche Applied Sciences). After staining with a FITC-labeled anti-BrdU-antibody, positive cells were detected by fluorescence microscopy.
For orientation: Uptake of a labelled nucleoside into DNA is a usual measure of proliferation.

The subject of the next series is p53 protein in HDF. Put plainly: Western blot analysis, p53. It is filed as cell-based, human. The settings on record: after treatment with LY. Here is the method: (§4) Cells were lysed in a lysis buffer composed of 50 mM HEPES pH 7.5, 150 mM NaCl, 1 mM EGTA, 10 % glycerol, 1 % Triton X-100, 100 mM NaF, 10 mM Na4P2O7, 1 µM PMSF, and 1 µM Na3VO4. Protein concentration in whole lysates was determined using a Bradford assay (BioRad). 20 µg of lysates diluted with Laemmli-buffer were separated on 12 % SDS-polyacrylamide gels and transferred to Immobilon-P membranes (Millipore). For detection of pRb, separation was performed on a 7-12 % gradient gel. Antibodies against p53 (Pab 1801), p21 (c-19), p16 (c-20) and α-Tubulin (TU-02) were purchased from Santa Cruz Biotechnology. Anti-pRB antibodies (G3-245) were from BD PharMingen. Enhanced chemiluminescence generated by horse radish peroxidase-coupled secondary antibodies was detected with a CF440 imager (Kodak/Perkin Elmer).
In general terms: A western blot detects proteins with antibodies after separation by electrophoresis.

In another series the test system is p16INK4A in HDF. Put plainly: Western blot analysis, p16. It is filed as cell-based, human. The settings on record: 48 hours of treatment with LY. Here is the method: as §4
A further series has as its system pRb in HDF. Put plainly: Western blot analysis, pRb phosphorylation status. It is filed as cell-based, human. The protocol:
as §4

A further series relates to DLD1. Nature of the series: proliferation assay (cell counting). It is filed as cell-based, human. The settings on record: after addition of LY. The protocol: as §1
For another series, the system named is HCT116. Nature of the series: proliferation assay (cell counting). It is filed as cell-based, human. Here is the method: as §1
The subject of a further series is MCF7. Nature of the series: proliferation assay (cell counting). It is filed as cell-based, human. The following applies: after addition of LY. Here is the method: as §1
Series [6] has as its system p21-deficient HCT116 colorectal cancer cells. Put plainly: proliferation assay (cell counting). It is filed as cell-based, human. The protocol:
as §1

Series [7] deals with p53-deficient HCT116 cells. Put plainly: proliferation assay (cell counting). It is filed as cell-based, human. The settings on record: after LY addition. Here is the method: as §1
Series [8] has as its system p21 protein in HCT116 cells. Put plainly: Western blot analysis, p21. It is filed as cell-based, human. Here is the method: as §4
Series [9] relates to p21 mRNA and protein of p53-/- HCT116. Put plainly: Northern and Western blot analysis of p21. The format is cell-based, human. The following applies: 1.5 µM LY. Here is the method: (§5) RNA was isolated using the RNAgents kit (Promega). A Northern probe directed against the 3'-untranslated region of ELF1 α mRNA was generated by PCR using an EST as template and subsequent gel purification. The p21 probe corresponds to the open reading frame of p21. A probe corresponding to the 5'-region of sGC-β3 was amplified from HDF-cDNA and subcloned. Hybridizations were performed in QuickHyb, following the manufacturer's instructions (Stratagene).
as §4

Series [10] has as its system p16INK4A-deficient mouse embryo fibroblasts (MEF). Nature of the series: proliferation (data not shown). The format is cell-based. The following applies: LY. The protocol: as §1
In series [11] the test system is NIH3T3-L1 cells expressing the K1-mutant. Nature of the series: proliferation assay (cell counting). The format is cell-based, mouse. The settings on record: 1.5 µM LY; most cells. Here is the method:
as §1

In series [12] the test system is NIH3T3-L1 cells expressing wildtype SV40 large T antigen. Put plainly: proliferation assay, morphology and annexin V staining. The format is cell-based, mouse. The following applies: 1.5 µM LY. Here is the method:
as §3, §1

The subject of a further series is HeLa. Put plainly: cell death / apoptosis (histone H2B-eGFP chromatin morphology, sub-G1 flow cytometry). The format is cell-based, human. Here is the method: as §3, §2
For orientation: In flow cytometry, cells or beads pass a laser one at a time.

In the next series the test system is HEK293. Put plainly: cell death (data not shown). It is filed as cell-based, human. The settings on record: treatment with LY, no arrest.
For series [13], the system named is cdk-inhibitors p27 and p15. Nature of the series: induction of cdk-inhibitors (data not shown). The settings on record: LY-treatment. It is filed as cell-based.
The target in series [14] is soluble guanylate cyclase. The settings on record: competitive inhibitor of soluble guanylate cyclase; Fleisch et al., 1984; cited from earlier work.
For the next series, the system named is p21 mRNA in HDF. Put plainly: Northern blot analysis of p21 mRNA. The format is cell-based, human. The settings on record: 0.2 µg/ml adriamycin. Here is the method:
as §5

The structures appear in SMILES notation.

The term IC50 denotes the concentration needed to halve the response being measured. In the case of `O=C1C(Nc2ccccc2)=CC(=O)c2ncccc21` [LY, 6-Anilino-quinoline-5,8-quinone], the inhibition at 1 µM in the series with HDF [1] was 60%. In addition, the inhibition at 0.25 µM in the series with HDF [2] (Homo sapiens, HDF, 72 h, read-out: reduction in proliferation) stood at 50%. In the series on HDF [2] (early passage fibroblasts, 1 µM LY), the inhibition of proliferation entry was “completely inhibit proliferation”. For the same molecule, in the series on HDF [2] (treatment for 8 days), the “proliferation after extended treatment” value was “stable inhibition of proliferation”. Besides, the “toxicity after extended treatment” value in the series on HDF [2] (treatment for 8 days) is “did not cause any obvious toxicity”. Further, the “reversibility of inhibition of proliferation” value with HDF [2] (treatment period of more than 2 days, 1 µM LY) is listed as “irreversible”. The “signs of senescence (morphology, SA-β-galactosidase)” value with HDF [3] was “morphological changes characteristic of senescence and by SA-β-galactosidase staining at pH 6”. The “entry into S-phase” value with HDF [4] is listed as “almost completely blocked the entry into S-phase”. Further, the “DNA synthesis as determined by BrdU incorporation” value in the series on HDF [5] is given as “complete inhibition of DNA synthesis”. Moreover, in the series with p53 protein in HDF, the “level of p53 protein” value is reported as “did not increase”. In the series with p16INK4A in HDF, the “induction of p16INK4A” value is recorded as “not induced”. For the same molecule, the “ratio of phosphorylated to hypo-phosphorylated pRb” value in the series with pRb in HDF (6 hours after addition of LY) was “clearly shifted towards the hypo-phosphorylated form”. Besides, the pRb phosphorylation status entry in the series with pRb in HDF (19 hours after addition of LY) is on record as “almost completely hypo-phosphorylated”. Besides, the cell proliferation entry in the series with DLD1 is “complete cessation of cell proliferation”; in the series with HCT116 (after addition of LY) it was “complete cessation of cell proliferation”; in the series on HCT116 (wild-type HCT116, after 5 days of LY treatment), “complete cessation of proliferation”; in the series with MCF7 it was “complete cessation of cell proliferation”; in [6] (after 5 days of LY treatment) it was “regained exponential proliferation”; in series [7] it was “complete block of proliferation”. Besides, the cell proliferation result in [10] was “inhibited”; in series [11], “inhibition of proliferation”. Moreover, in series [6] (LY vs vehicle (DMSO)), the cell-cycle inhibition result is given as “resistant to cell-cycle inhibition”. In addition, the p21 protein result in series [8] (1.5 µM LY) is listed as “induction of p21”. Further, in series [9], the “levels of p21 mRNA and protein” value is given as “induced with kinetics similar to those observed in HDF”. Moreover, the cell fate result is “underwent apoptosis” in [12]; “underwent cell death” with HeLa (treatment with LY, no arrest, data not shown); “underwent cell death” in the series on HEK293. Further, the chromatin morphology entry with HeLa (HeLa expressing histone H2B-eGFP, 2 µM LY for 48 hours) is given as “chromatin condensation”. Further, the “cells with a sub-G1 DNA content” value with HeLa (HeLa treated for 60 hours with LY, flow-cytometry) is “substantial increase of cells with a sub-G1 DNA content”. Further, in [13], the “induction of p27 and p15” value was “did not lead to induction”. Further, the IC50 in series [14] was 2000 nM.

On to `COc1cccc2c1C(=O)c1c(O)c3c(c(O)c1C2=O)C[C@@](O)(C(=O)CO)C[C@@H]3O[C@H]1C[C@H](N)[C@H](O)[C@H](C)O1` [adriamycin], for which the “p21 mRNA” value in the series with p21 mRNA in HDF is reported as “induction of p21 mRNA”. The p21 protein result in [8] (wildtype HCT116 only, adriamycin at 0.2 µg/ml for 8 hours) is given as “induction of p21 protein”.
